From US7273878B2, “Difluoroalkene derivative, pest control agent containing the same, and intermediate therefor” (Kumiai Chemical Industry Co., Ltd., priority 2001, dated 2007)

Key:
[1] = test system: Nilaparvata lugenis; assay: Insecticidal test for Nilaparvata lugenis; format: in vivo; conditions: 144 h, 500 ppm active ingredient (wettable powder), 4-instar larvae on germinated rice paddy, 25° C., after 6 days, read-out: mortality rate
Procedure: The wettable powder prepared according to the above Preparation Example 2 was diluted with water to a concentration of 500 ppm as a concentration of active ingredient. After soaking the germinated rice paddy in the test solution, the paddy was transferred into a 60 ml volume of plastic cup. Ten (10) heads of 4-instar larvae of Nilaparvata lugenis were inoculated on the paddy and capped, then left at the constant temperature of 25° C. After 6 days from the inoculation, the number of surviving insects was counted, and mortality rate of the insect was calculated according to the following formula 1. mortality rate (%)=[(10−number of surviving insect in the test field)/10]×100 (1)

[2] = test system: ddy mouse (Slc:ddy); assay: Oral acute toxicity test; format: in vivo; parameters: key: 0/3 means none of 3 recipient animals died; 1/3 means one out of 3 recipient animals died; 2/3 means 2 out of 3 recipient animals died; 3/3 means all 3 recipient animals died; conditions: oral 30 mg/kg, mortality investigated for 7 days; for Test result Female (mortality, animals died out of 3): female ddy mouse; for Test result Male (mortality, animals died out of 3): male ddy mouse
Procedure: Oral acute toxicity test was conducted according to the method described in the guideline in “Guideline for the Preparation of Test Report on the Toxicity Studies”, published by the Ministry of Agriculture, Forestry and Fisheries of Japan. Experimental animals, 3 each of male and female of 7 weeks aged ddy mouse (Slc:ddy), were obtained from SLC Japan Inc. The compounds of the present invention and the reference substances were suspended in 0.5% sodium carboxymethyl cellulose or corn oil to give a 30 (mg/kg) equivalent amount for a dosage of 10 ml per 1 kg of body weight. The suspensions were inoculated using a sonde directly into the stomach of test animals which were fasted for 3 hours before inoculation. The test animals were fasted for additional 3 hours after inoculation, and the mortality of the inoculated animal was investigated for 7 days. In this table, 0/3 means none of 3 recipient animals died, 1/3 means one out of 3 recipient animals died, 2/3 means 2 out of 3 recipient animals died, 3/3 means all 3 recipient animals died.

Row | Compound | mortality at 500 ppm [1] [%] | Test result Female (mortality, animals died out of 3) [2] | Test result Male (mortality, animals died out of 3) [2]
1 | CC(CCCCOC(=O)c1ccc2ocnc2c1)=C(F)F [Compound 43, 6,6-difluoro-5-methyl-5-hexenyl benzoxazole-5-carboxylate] | ≥ 90 |  | 
2 | CC(CCCCOC(=O)c1snnc1-c1ccccc1)=C(F)F [Compound 11, 6,6-difluoro-5-methyl-5-hexenyl 4-phenyl[1,2,3]-thiadiazole-5-carboxylate] | ≥ 90 |  | 
3 | Cc1nc(-c2ccccc2)ncc1C(=O)OCCC=C(F)F [Reference compound C, 4,4-difluoro-3-butenyl 4-methyl-2-phenylpyrimidine-5-carboxylate, reference compound] |  | 3/3 | 3/3
4 | CC(CCOC(=O)c1cccn1CC#N)=C(F)F [Compound 282, 4,4-difluoro-3-methyl-3-butenyl 1-cyanomethyl-1H-pyrrole-2-carboxylate] | ≥ 90 |  | 
5 | CC(CCCCOC(=O)c1nc2ccccc2s1)=C(F)F [Compound 21, 6,6-difluoro-5-methyl-5-hexenyl benzothiazole-2-carboxylate] | ≥ 90 |  | 
6 | CC(CCCCCCOC(=O)c1cc2ccccc2s1)=C(F)F [Compound 10, 8,8-difluoro-7-methyl-7-octenyl benzo[b]thiophene-2-carboxylate] | ≥ 90 |  | 
7 | CC(CCCCOC(=O)c1nc(C)n(-c2ccccc2)n1)=C(F)F [Compound 47, 6,6-difluoro-5-methyl-5-hexenyl 5-methyl-1-phenyl-1H-[1,2,4]triazole-3-carboxylate] | ≥ 90 |  | 
8 | O=C(OCCCCC=C(F)F)c1cc2ccccc2s1 [Reference compound D, 6,6-difluoro-5-hexenyl benzo[b]thiophen-2-carboxylate, reference compound] |  | 3/3 | 3/3
9 | CC(CCCCOC(=O)c1snc(Cl)c1Cl)=C(F)F [Compound 49, 6,6-difluoro-5-methyl-5-hexenyl 3,4-dichloroisothiazole-5-carboxylate] | ≥ 90 |  | 
10 | CCOc1oc(-c2ccccc2)nc1C(=O)OCCCCC(C)=C(F)F [Compound 50, 6,6-difluoro-5-methyl-5-hexenyl 5-ethoxy-2-phenyl-oxazole-4-carboxylate] | ≥ 90 |  | 
11 | CC(CCCCOC(=O)c1nsc2ccccc12)=C(F)F [Compound 45, 6,6-difluoro-5-methyl-5-hexenyl benzo[d]isothiazole-3-carboxylate] | ≥ 90 |  | 
12 | CC(CCCCOC(=O)c1noc2ccccc12)=C(F)F [Compound 44, 6,6-difluoro-5-methyl-5-hexenyl benzo[d]isoxazole-3-carboxylate] | ≥ 90 |  | 
13 | CC(CCOC(=O)c1cccn1CC1CC1)=C(F)F [Compound 281, 4,4-difluoro-3-methyl-3-butenyl 1-cyclopropylmethyl-1H-pyrrole-2-carboxylate] | ≥ 90 |  | 
14 | CC(CCCCOC(=O)c1cnc2ccccc2c1)=C(F)F [Compound 8, 6,6-difluoro-5-methyl-5-hexenyl quinoline-3-carboxylate] | ≥ 90 |  | 
15 | CC(CCCCOC(=O)C1CCOC1)=C(F)F (stereo not shown) [Compound 41, 6,6-difluoro-5-methyl-5-hexenyl tetrahydrofuran-3-carboxylate] | ≥ 90 |  | 
16 | CC(CCOC(=O)c1c2c(nn1C)CCC2)=C(F)F [Compound 242, 4,4-difluoro-3-methyl-3-butenyl 2-methyl-2,4,5,6-tetrahydrocyclopentapyrazole-3-carboxylate] | ≥ 90 |  | 
17 | CC(CCCCOC(=O)c1sccc1C)=C(F)F [Compound 2, 6,6-difluoro-5-methyl-5-hexenyl 3-methylthiophene-2-carboxylate] | ≥ 90 |  | 
18 | CC(CCCCOC(=O)c1ccc(Cl)nc1)=C(F)F [Compound 1, 6,6-di-fluoro-5-methyl-5-hexenyl 6-chloronicotinate] | ≥ 90 | 0/3 | 0/3
19 | CCCCOc1cc(C(=O)OCCC(C)=C(F)F)nc(C)n1 [Compound 276, 4,4-difluoro-3-methyl-3-butenyl 6-butoxy-2-methyl-pyrimidine-4-carboxylate] | ≥ 90 |  | 
20 | CC(CCOC(=O)c1cc2ccccc2s1)=C(F)F [Compound 18, 4,4-difluoro-3-methyl-3-butenyl benzo[b]thiophene-2-carboxylate] |  | 0/3 | 0/3

Row | Compound | mortality at 500 ppm [1] [%] | Test result Female (mortality, animals died out of 3) [2] | Test result Male (mortality, animals died out of 3) [2]
21 | CCn1c(C(=O)OCCCCC(C)=C(F)F)cc2ccccc21 [Compound 25, 6,6-difluoro-5-methyl-5-hexenyl 1-ethyl-1H-indole-2-carboxylate] | ≥ 90 |  | 
22 | CCc1nn(C)c(C(=O)OCCCCC(C)=C(F)F)c1Cl [Compound 26, 6,6-difluoro-5-methyl-5-hexenyl 4-chloro-5-ethyl-2-methyl-2H-pyrazole-3-carboxylate] | ≥ 90 |  | 
23 | CC(CCCCOC(=O)c1cc2ccccc2s1)=C(F)F [Compound 3, 6,6-difluoro-5-methyl-5-hexenyl benzo[b]thiophene-2-carboxylate] |  | 0/3 | 0/3
24 | CC(CCCCOC(=O)c1cnc(-c2ccccc2)s1)=C(F)F [Compound 132, 6,6-difluoro-5-methyl-5-hexenyl 2-phenylthiazole-5-carboxylate] | ≥ 90 |  | 
25 | CC(CCOC(=O)c1ncccc1C(=O)Nc1ccccc1)=C(F)F [Compound 234, 4,4-difluoro-3-methyl-3-butenyl 3-phenylcarbamoyl-pyridine-2-carboxylate] | ≥ 90 |  | 
26 | CC(=O)N1CCC(C(=O)OCCCCC(C)=C(F)F)CC1 [Compound 40, 6,6-difluoro-5-methyl-5-hexenyl 1-acetylpiperidine-4-carboxylate] | ≥ 90 |  | 
27 | CC(CCCCOC(=O)c1cc(Cl)nnc1Cl)=C(F)F [Compound 48, 6,6-difluoro-5-methyl-5-hexenyl 3,6-dichloropyridazine-4-carboxylate] | ≥ 90 |  | 
28 | CC(CCCCOC(=O)c1ccco1)=C(F)F [Compound 9, 6,6-difluoro-5-methyl-5-hexenyl furan-2-carboxylate] | ≥ 90 |  | 
29 | CC(CCOC(=O)c1nc(C)cc(-c2ccccc2)n1)=C(F)F [Compound 278, 4,4-difluoro-3-methyl-3-butenyl 4-methyl-6-phenyl-pyrimidine-2-carboxylate] | ≥ 90 |  | 
30 | O=C(OCCCCC=C(F)F)c1ccc(Cl)nc1 [Reference compound A, 6,6-difluoro-5-hexenyl 6-chloronicotinate, reference compound] |  | 3/3 | 3/3
31 | CCCCOc1ncc(C(=O)OCCC=C(F)F)c(C)n1 [Reference compound B, 4,4-difluoro-3-butenyl 2-butoxy-4-methylpyrimidine-5-carboxylate, reference compound] |  | 3/3 | 3/3
32 | CC(CCCCOC(=O)c1ccc2[nH]ccc2c1)=C(F)F [Compound 15, 6,6-difluoro-5-methyl-5-hexenyl 1H-indole-5-carboxylate] | ≥ 90 |  | 
33 | CC(CCCCOC(=O)c1cnsn1)=C(F)F [Compound 22, 6,6-difluoro-5-methyl-5-hexenyl [1,2,5]thiadiazole-3-carboxylate] | ≥ 90 |  | 
34 | CC(CCCCOC(=O)c1cnccn1)=C(F)F [Compound 28, 6,6-difluoro-5-methyl-5-hexenyl pyrazine-2-carboxylate] | ≥ 90 |  | 
35 | CC(CCCCOC(=O)c1sc(-c2ccccc2)nc1C)=C(F)F [Compound 29, 6,6-difluoro-5-methyl-5-hexenyl 4-methyl-2-phenyl-thiazole-5-carboxylate] |  | 0/3 | 0/3
36 | CC(CCCCOC(=O)c1cccn1C)=C(F)F [Compound 38, 6,6-difluoro-5-methyl-5-hexenyl 1-methyl-1H-pyrrole-2-carboxylate] | ≥ 90 |  | 
37 | CC(CCCCOC(=O)c1csc(-c2ccccc2)n1)=C(F)F [Compound 129, 6,6-difluoro-5-methyl-5-hexenyl 2-phenylthiazole-4-carboxylate] | ≥ 90 |  | 
38 | CC(CCOC(=O)c1cnc(N(C)c2ccccc2)nc1C)=C(F)F [Compound 119, 4,4-difluoro-3-methyl-3-butenyl 4-methyl-2-(N-methyl-N-phenylamino)pyrimidine-5-carboxylate] |  | 0/3 | 0/3
39 | CC(CCCCOC(=O)c1cn(C)cn1)=C(F)F [Compound 39, 6,6-difluoro-5-methyl-5-hexenyl 1-methyl-1H-imidazole-4-carboxylate] | ≥ 90 |  | 
